Our source for the Activity values is ChEMBL document CHEMBL1144662, “Requirement of beta-alanine components in sequence-specific DNA alkylation by pyrrole-imidazole conjugates with seven-base pair recognition” (Bioorg Med Chem, 2008).

SMILES strings stand for the structures. The source made the active and inactive calls. The rule behind the calls is not given here.

Test [1] can be described thus: Alkylation of plasmid DNA at 5'-ACTACCA-3' site in 5'-Texas Red labeled 202-bp DNA fragment after 15 hrs.
A short description of test [2]: Alkylation of plasmid DNA at 5'-ACAACCA-3' site in 5'-Texas Red labeled 202-bp DNA fragment after 15 hrs.
The nature of test [3]: Alkylation of plasmid DNA at 5'-AGCTCCA-3' site in 5'-Texas Red labeled 202-bp DNA fragment after 15 hrs.
The nature of test [4]: Alkylation of plasmid DNA at 5'-AGCACCA-3' site in 5'-Texas Red labeled 202-bp DNA fragment after 15 hrs.
Test [5] is described as follows: Alkylation of plasmid DNA in 5'-Texas Red labeled 202-bp DNA fragment upto 5 uM after 15 hrs.

Regarding `CC(=O)Nc1cn(C)c(C(=O)Nc2cn(C)c(C(=O)Nc3cc(C(=O)NCCC(=O)Nc4cn(C)c(C(=O)NCCCC(=O)Nc5cc(C(=O)NCCC(=O)Nc6cc(C(=O)Nc7ccc8[nH]c(C(=O)N9CC(CCl)c%10c9cc(O)c9ccccc%109)cc8c7)n(C)c6)n(C)c5)n4)n(C)c3)n2)n1` (stereo unspecified), the result in test [1] and in test [2] was Active. `CC(=O)Nc1cn(C)c(C(=O)Nc2cn(C)c(C(=O)NCCC(=O)Nc3cn(C)c(C(=O)Nc4cc(C(=O)NCCCC(=O)Nc5cn(C)c(C(=O)Nc6cc(C(=O)NCCC(=O)Nc7ccc8[nH]c(C(=O)N9CC(CCl)c%10c9cc(O)c9ccccc%109)cc8c7)n(C)c6)n5)n(C)c4)n3)n2)n1` (stereo unspecified): the outcome in test [3] and in test [4] was Active.

Consider `CC(=O)Nc1cn(C)c(C(=O)Nc2cn(C)c(C(=O)Nc3cc(C(=O)Nc4cc(C(=O)Nc5cn(C)c(C(=O)NCCCC(=O)Nc6cc(C(=O)Nc7cc(C(=O)Nc8cc(C(=O)Nc9ccc%10[nH]c(C(=O)N%11CC(CCl)c%12c%11cc(O)c%11ccccc%12%11)cc%10c9)n(C)c8)n(C)c7)n(C)c6)n5)n(C)c4)n(C)c3)n2)n1` (stereo unspecified), for which the result in test [1] and in test [2] was Active.

`CC(=O)Nc1cn(C)c(C(=O)Nc2cn(C)c(C(=O)NCCC(=O)Nc3cn(C)c(C(=O)Nc4cc(C(=O)NCCCC(=O)Nc5cn(C)c(C(=O)Nc6cc(C(=O)Nc7cc(C(=O)Nc8ccc9[nH]c(C(=O)N%10CC(CCl)c%11c%10cc(O)c%10ccccc%11%10)cc9c8)n(C)c7)n(C)c6)n5)n(C)c4)n3)n2)n1` (stereo unspecified): the result in test [3] and in test [4] was Active. Turning to `CC(=O)Nc1cn(C)c(C(=O)Nc2cn(C)c(C(=O)Nc3cc(C(=O)Nc4cn(C)c(C(=O)Nc5cc(C(=O)NCCCC(=O)Nc6cn(C)c(C(=O)Nc7cc(C(=O)NCCC(=O)Nc8ccc9[nH]c(C(=O)N%10CC(CCl)c%11c%10cc(O)c%10ccccc%11%10)cc9c8)n(C)c7)n6)n(C)c5)n4)n(C)c3)n2)n1` (stereo unspecified), the result in test [5] was inactive.

Take `CC(=O)Nc1cn(C)c(C(=O)Nc2cn(C)c(C(=O)Nc3cc(C(=O)NCCC(=O)Nc4cn(C)c(C(=O)NCCCC(=O)Nc5cc(C(=O)Nc6cc(C(=O)Nc7cc(C(=O)Nc8ccc9[nH]c(C(=O)N%10CC(CCl)c%11c%10cc(O)c%10ccccc%11%10)cc9c8)n(C)c7)n(C)c6)n(C)c5)n4)n(C)c3)n2)n1` (stereo unspecified): the result in test [1] and in test [2] was Active.
